# Test results published in article PMC7799360, “Reprogramming immunosuppressive myeloid cells facilitates immunotherapy for colorectal cancer” (EMBO Molecular Medicine, 2020).
# How the values were obtained:
# mouse bone marrow cells [1] = experiment: GM-CSF/IL-6-induced bone marrow MDSC differentiation assay; type: cell-based; conditions: GM-CSF/IL-6/PGE2, 0.1-10 μM TP-16, 6 days
# Method: (§1) Single‐cell suspensions of mouse BM cells were prepared by filtering femurs and tibias of 6‐week‐old female BALB/c mice through 40‐μm cell strainers (Falcon). These suspensions were treated with red blood cell lysis buffer and replated in conditioned medium. Monocyte differentiation, MDSC induction, and macrophage polarization were analyzed by FACS analysis (BD Biosciences) with FlowJo software.
# For the MDSC induction assay, purified BM cells were cultured in RPMI1640 medium stimulated with recombinant mouse GM‐CSF (40 ng/ml, Peprotech) and IL‐6 (40 ng/ml, Peprotech) for 6 days to generate bone marrow‐derived MDSCs (Svoronos et al., 2017); the medium was refreshed every 3 days. Vehicle or PGE2 (10 nM) ± TP‐16 was added simultaneously on day 0 for FACS analysis of BM‐derived MDSCs. For quantitative PCR (qPCR) analysis of MDSCs, differentiated MDSCs were treated with vehicle or PGE2 (10 nM) ± TP‐16 for 12 h.
# [2] = In vitro metabolic stability using liver microsome; type: in vitro ADME; conditions: mouse liver microsome
# human EP3 = human EP3 (Homo sapiens, UniProt P43115); experiment: PGE2-induced calcium flux assay in CHO-Gα16 cells; type: cell-based
# Chain of human EP3 (P43115 1-359 limits assumed): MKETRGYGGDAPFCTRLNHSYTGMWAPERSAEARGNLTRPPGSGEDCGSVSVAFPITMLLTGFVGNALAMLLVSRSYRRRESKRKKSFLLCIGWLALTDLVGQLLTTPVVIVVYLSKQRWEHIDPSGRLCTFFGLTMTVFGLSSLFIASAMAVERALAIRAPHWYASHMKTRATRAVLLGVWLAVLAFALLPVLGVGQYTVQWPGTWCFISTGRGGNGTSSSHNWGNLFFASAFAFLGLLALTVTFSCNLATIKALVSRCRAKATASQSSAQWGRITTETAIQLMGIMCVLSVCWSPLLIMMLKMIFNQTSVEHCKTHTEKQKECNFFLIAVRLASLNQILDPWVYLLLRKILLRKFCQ
# CT26 tumors = experiment: CT26 subcutaneous syngeneic tumor model in BALB/c mice; type: in vivo, mouse
# Method: Syngeneic mouse tumor‐bearing models were established as described previously (Tan et al., 2018). Tumor cells (5 × 10^5 ‐ 2 × 10^6) were suspended in 100 μl PBS and implanted subcutaneously into the flank of mice. Mice were randomized into different treatment groups when tumor volumes reached 100‐200 mm^3. V = L×W^2 × 0.52, where L is the longest diameter, and W is the shortest diameter. Tumor size and body weight were recorded every second or third day. Mouse survival was analyzed using the Kaplan–Meier method.
# Single agent or combination treatment was designed as follows: TP‐16 (37.5, 75, 150 mg/kg) or celecoxib (100 mg/kg) was formulated in 0.5% carboxymethylcellulose sodium (CMC‐Na, Sangon Biotech, Shanghai, China) and administered via oral gavage daily. In vivo anti‐PD1 antibody (clone RMP1‐14, BioXCell, West Lebanon, NH, USA) and rat IgG2a isotype control (clone 2A3, BioXCell) were diluted in sterile PBS and administered intraperitoneally at a dose of 50 μg twice weekly.
# BB1 = target: T1, BB1 (Homo sapiens, UniProt P28336); experiment: GPCR calcium flux assay; type: cell-based
# T1 construct: Pharmaron (Beijing, China), contract laboratory
# T1 sequence (P28336 whole entry): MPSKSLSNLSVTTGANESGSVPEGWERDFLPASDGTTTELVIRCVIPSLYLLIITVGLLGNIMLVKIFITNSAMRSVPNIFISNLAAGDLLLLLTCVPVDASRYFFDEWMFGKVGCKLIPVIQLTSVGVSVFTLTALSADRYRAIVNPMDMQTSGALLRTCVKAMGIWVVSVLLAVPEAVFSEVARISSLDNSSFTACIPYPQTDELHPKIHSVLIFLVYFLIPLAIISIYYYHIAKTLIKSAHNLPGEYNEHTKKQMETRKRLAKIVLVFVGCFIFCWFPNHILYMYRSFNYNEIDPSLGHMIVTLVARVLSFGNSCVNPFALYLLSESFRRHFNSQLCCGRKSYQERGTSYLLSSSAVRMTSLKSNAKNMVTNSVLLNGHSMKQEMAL
# MC38 = experiment: Cell viability (MTS); type: cell-based, mouse; conditions: MC38, 100 µM
# Text: (§2) The murine colon cancer (CT26), murine breast cancer (4T1), and human colon cancer (HCT116, HCT8, HT29, and DLD1) cell lines were obtained from American Type Culture Collection (ATCC). The murine cell lines of melanoma (B16F10), pancreatic cancer (Pan02), and colon cancer (MC38), Chinese hamster ovary (CHO) cell line, and human embryonic kidney cell lines (HEK293 and HEK293T) were purchased from the National Infrastructure of Cell Line Resource (Shanghai, China). Primary human endothelial cells (HUVECs) were kindly provided by Dr. Xinli Wang (Baylor College of Medicine, Houston, TX, USA) and cultured in endothelial cell medium (ScienCell, San Diego, CA, USA) according to the manufacturer’s instructions. The CHO‐Gα16 cell line was established in our previous study and maintained in DMEM/F12 medium containing puromycin (4 μg/ml) (Wu et al., 2018). Cell lines were maintained in vendor recommended growth medium supplemented with 10% FBS (Gibco, Waltham, MA, USA) and 1% penicillin/streptomycin solution (Gibco) at 37°C ins a humidified atmosphere (5% CO2). All cell lines were authenticated using short tandem repeat analysis. All cell lines were confirmed to be mycoplasma‐free by polymerase chain reaction (PCR) analysis. Cell viability was determined using CellTiter 96 ® Aqueous One Solution (Promega, Madison, WI).
# (§3) Appendix Figure S1. […]. The cytotoxicity curves
# (§4) . Mouse cancer cells: CT26
# (§5) . Human colon cancer cells: HCT116 (E),
# (§6) HCT8 (F), HT29 (G) and DLD1 (H). Human normal cell line: HUVECs (I). Cell
# (§7) viability was measured by MTS. Data are presented as mean ± SEM derived
# (§8) from three independent experiments (n=3).
# (§9) (1 picture or pasted object on this page, not shown here)
# CT26 = experiment: Cell viability (MTS); type: cell-based, mouse; conditions: CT26, 100 µM
# Text: as §2, §3, §4, §5, §6, §7, §8, §9
# Panc02 = experiment: Cell viability (MTS); type: cell-based, mouse; conditions: Panc02, 100 µM
# Text: as §2, §3, §4, §5, §6, §7, §8, §9
# 4T1 = experiment: Cell viability (MTS); type: cell-based, mouse; conditions: 4T1, 100 µM
# Text: as §2, §3, §4, §5, §6, §7, §8, §9
# mouse bone marrow cells [3] = experiment: Macrophage polarization assay (M-CSF/IL-4/PGE2, M2 macrophages); type: cell-based; conditions: M-CSF/IL-4/PGE2, 6 days, concentration-dependent
# Method: as §1
# For macrophage polarization assay (De Henau et al., 2016; Tan et al., 2018), mouse BM cells were cultured in RPMI1640 medium supplemented with recombinant mouse M‐CSF (20 ng/ml, Peprotech) to generate BM‐derived macrophages (BMDM). For FACS analysis of BM‐derived M2‐like macrophage, IL‐4 (20 ng/ml, Peprotech) and PGE2 (10 nM) were added on day 0. TP‐16 was added simultaneously with PGE2 on day 0 or sequentially on day 3 for differentiation over a period of 6 days. For qPCR analysis of macrophages (day 6), BMDMs were polarized with IFNγ (50 ng/ml, Peprotech) or IL‐4 (20 ng/ml, Peprotech) ± PGE2 (10 nM) ± TP‐16 for 24 h at 37°C on day 6. The culture medium was refreshed every 3 days.
compound,measurement,setting,value
C[C@H](NC(=O)c1c(Cc2ccc(F)cc2)sc2c1CCOC2)c1ccc(C(=O)O)cc1 [TP-16],PGE2-dependent expansion of both mMDSCs and PMN-MDSCs,mouse bone marrow cells [1],significantly inhibited
same,hepatocyte CLint,[2]; liver microsomes,5.91 µL/min/1e6 cells
same,half-life,"[2]; liver microsomes, read-out: In vitro T1/2",3.92 h
same,CLhep predicted,"[2]; liver microsomes, read-out: Predicted hepatic Clint",39.3 mL/min/kg
same,CLint scaled,"[2]; liver microsomes, read-out: Scale-up Clint",69.8 mL/min/kg
same,Remaining Percentages at 120 min,[2],70.6%
same,IC50,human EP3,> 10 µM
same,%TGI (tumor growth inhibition),"CT26 tumors; CT26, BALB/c mice, 37.5 mg/kg p.o. daily, 16 days",26.2%
same,%TGI (tumor growth inhibition),"CT26 tumors; CT26, BALB/c mice, 75 mg/kg p.o. daily, 16 days",47.4%
same,%TGI (tumor growth inhibition),"CT26 tumors; CT26, BALB/c mice, 150 mg/kg p.o. daily, 16 days",47.6%
same,anti-tumor efficacy compared with E7046,"CT26 tumors; CT26, BALB/c mice, both 150 mg/kg",greater efficacy than E7046
same,median survival time,"CT26 tumors; CT26, BALB/c, TP-16 75 mg/kg p.o. daily, anti-PD-1 50 μg i.p. twice weekly, 2 weeks, control 16 days",30 days
same,anti-tumor efficacy compared with celecoxib,"CT26 tumors; CT26, TP-16 75 mg/kg vs celecoxib 100 mg/kg, p.o. daily, 16 days",superior
same,IC50,BB1,> 10 µM
same,effect on cell viability,MC38,did not affect the viability
same,effect on cell viability,CT26,did not affect the viability
same,effect on cell viability,Panc02,did not affect the viability
same,effect on cell viability,4T1,did not affect the viability
same,PGE2-induced polarization of M2 macrophages,mouse bone marrow cells [3],significantly suppressed
